US20250144085A1, “PHARMACEUTICAL COMPOSITION FOR PREVENTING OR TREATING CANCER COMPRISING OMEPRAZOLE BROWNING MATTER” (NEW CANCER CURE BIO CO., LTD, priority 2021, published 2025)

System: pancreatic cancer (MIA PaCa2) cell line
Assay: sulforhodamine B colorimetric assay (SRB assay) of cancer cell death
Type: cell-based
Conditions: 48 hours; for Cancer cell killing rate (%) by treatment with omeprazole (KN510) degradation substance: 0.1%; for Cancer cell growth rate following treatment with omeprazole (KN510) degradation substance, average(%): treated at a concentration of 0.1%
Method: In order to confirm the anticancer activity of the omeprazole (KN510) degradation substances (acid degradation substances) and base degradation substances prepared in Example 1 above, the cancer cell killing effect of each of the omeprazole (KN510) degradation substances was determined. The extent of cancer cell death was measured by sulforhodamine B colorimetric assay (SRB assay), which was performed as follows: A pancreatic cancer (MIA PaCa2) cell line (100 μ ? ) was inoculated into 96-well cell culture plates at a density ranging from 7,500 to 10,000 cells/well depending on the doubling time. Each of the omeprazole (KN510) degradation substances prepared in Example 1 above was treated at a concentration of 0.1% and incubated in a CO2 incubator for 48 hours, after which the assay was terminated by adding cold TCA. Cells were fixed intact by gently adding 50 μl of cold 50% (w/v) TCA (final concentration: 10% TCA) and incubated at 4° C. for 60 min. The supernatant was discarded, and the plate was washed five times with distilled water and then air dried. A solution (100 μl) of 0.4% (w/v) sulforhodamine B in 1% acetic acid was added to each well, and the plate was left at room temperature for 10 min. After staining, unbound dye was removed by washing five times with 1% acetic acid, and the plate was air-dried. The bound dye was then solubilized with 10 mM trizma base, and the absorbance was recorded at 515 nm using an automated plate reader. All experiments were performed in triplicate, and data were expressed as mean±standard deviation values.

## COc1ccc2[nH]c([S+]([O-])Cc3ncc(C)c(OC)c3C)nc2c1 (centres unmarked) [omeprazole (KN510), omeprazole]
Compared to the control group using the values in Table 1
  Cancer cell killing rate (%) by treatment with omeprazole (KN510) degradation substance: about 32%
Compared to the control group using the values in Table 1, listed as KN510 + 1M HCl 0 μl
  Cancer cell killing rate (%) by treatment with omeprazole (KN510) degradation substance: 31.85%
Compared to the control group using the values in Table 1, listed as KN510 + 1M NaOH 0 μl
  Cancer cell killing rate (%) by treatment with omeprazole (KN510) degradation substance: 32.82%
Control = 100.00, listed as KN510 + 1M HCl 0 μl
  Cancer cell growth rate following treatment with omeprazole (KN510) degradation substance, average(%): 68.15%
Control = 100.00, listed as KN510 + 1M NaOH 0 μl
  Cancer cell growth rate following treatment with omeprazole (KN510) degradation substance, average(%): 67.18%
